Measurements reported in ChEMBL document CHEMBL3877327, “Activation of anti-oxidant Nrf2 signaling by substituted trans stilbenes” (Bioorg Med Chem, 2017).

Tests used:
[1] = target: T1, Nuclear factor erythroid 2-related factor 2 (Homo sapiens) (UniProt Q16236); test: Activation of Nrf2 (unknown origin) expressed in human HepG2 cells after 5 hrs by ARE-driven luciferase reporter gene assay relative to control; assay type: cell-based
T1 sequence (whole entry): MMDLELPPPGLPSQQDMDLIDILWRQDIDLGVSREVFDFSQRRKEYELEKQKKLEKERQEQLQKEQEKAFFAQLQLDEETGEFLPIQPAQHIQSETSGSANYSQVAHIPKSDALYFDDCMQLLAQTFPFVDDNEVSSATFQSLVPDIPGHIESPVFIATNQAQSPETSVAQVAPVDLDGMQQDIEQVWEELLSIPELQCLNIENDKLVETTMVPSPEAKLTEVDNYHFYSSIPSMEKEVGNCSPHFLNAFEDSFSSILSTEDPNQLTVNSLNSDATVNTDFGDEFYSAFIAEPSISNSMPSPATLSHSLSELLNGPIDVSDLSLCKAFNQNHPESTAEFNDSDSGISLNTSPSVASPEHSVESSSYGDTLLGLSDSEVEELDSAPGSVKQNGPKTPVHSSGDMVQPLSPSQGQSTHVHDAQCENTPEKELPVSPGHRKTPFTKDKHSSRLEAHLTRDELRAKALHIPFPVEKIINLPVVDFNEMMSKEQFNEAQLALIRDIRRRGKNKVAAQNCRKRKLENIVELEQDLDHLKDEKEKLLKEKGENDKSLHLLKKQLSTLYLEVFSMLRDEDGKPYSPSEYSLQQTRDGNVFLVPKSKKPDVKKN

[2] = target: T1, Nuclear factor erythroid 2-related factor 2 (Homo sapiens); test: Activation of Nrf2 (unknown origin) expressed in human HepG2 cells at 15 uM after 5 hrs by ARE-driven luciferase reporter gene assay relative to control; assay type: cell-based

Row | Compound | fold change (FC) [1] | fold change (FC) [2]
1 | Fc1cccc(/C=C/c2ccccc2)c1 | 4.9 | 
2 | Fc1cccc(F)c1/C=C/c1ccccc1 | 11.4 | 
3 | Fc1cccc(/C=C/c2ccc(F)c(F)c2)c1 | 12.2 | 
4 | COc1cccc(/C=C/c2cccc(F)c2)c1OC | 19.4 | 
5 | Cc1ccc(/C=C/c2cccc(F)c2)cc1 | 4.7 | 
6 | Fc1cccc(/C=C/c2ccccc2F)c1 |  | 8.5
7 | COc1ccc(/C=C/c2cc(F)ccc2F)cc1 | 17 | 
8 | COc1ccc(/C=C/c2ccc(OC)cc2OC)cc1 | 15.6 | 
9 | COc1ccc(/C=C/c2ccc(F)cc2)cc1OC | 1.6 | 
10 | COc1cccc(/C=C/c2ccc(C(F)(F)F)cc2)c1OC | 65.5 | 
11 | COc1ccc(/C=C/c2ccccc2Cl)cc1 | 17.8 | 
12 | Fc1ccc(/C=C/c2ccccc2F)cc1F |  | 11.5
13 | COc1cccc(/C=C/c2ccccc2OC)c1 | 29.2 | 
14 | COc1ccc(OC)c(/C=C/c2ccc(F)cc2)c1 | 10.7 | 
15 | COc1cccc(/C=C/c2ccc(F)cc2)c1 | 4.4 | 
16 | Fc1ccc(/C=C/c2cc(F)ccc2F)cc1 | 11.2 | 
17 | Fc1cccc(/C=C/c2cccc(F)c2)c1 | 7 | 
18 | COc1ccc(/C=C/c2cccc(O)c2)cc1 |  | 28.1
19 | Fc1ccccc1/C=C/c1ccccc1 | 10.7 | 
20 | COc1ccc(/C=C/c2ccc(F)c(F)c2)cc1 |  | 4.6

Row | Compound | fold change (FC) [1] | fold change (FC) [2]
21 | COc1ccc(/C=C/c2ccc(F)cc2)cc1 | 1.7 | 
22 | Cc1ccc(/C=C/c2ccc(F)c(F)c2)cc1 | 10.2 | 
23 | Fc1ccccc1/C=C/c1ccccc1F | 13.9 | 
24 | COc1ccc(/C=C/c2ccc(O)c(OC)c2)cc1 | 27.7 | 
25 | COc1cccc(/C=C/c2ccccc2)c1OC | 25.4 | 
26 | Fc1ccc(/C=C/c2cccc(F)c2)cc1 | 4.5 | 
27 | COc1cccc(/C=C/c2ccc(C(C)C)cc2)c1OC | 33.9 | 
28 | Cc1ccc(/C=C/c2ccc(F)cc2F)cc1 | 13.5 | 
29 | COc1cccc(/C=C/c2cc(OC)ccc2OC)c1 |  | 15.7
30 | COc1ccc(/C=C/c2ccccc2F)cc1 | 14.9 | 
31 | COc1cccc(/C=C/c2ccc(F)cc2)c1OC | 16.9 | 
32 | Fc1ccccc1/C=C/c1ccc(Cl)cc1 | 5.3 | 
33 | Fc1ccc(/C=C/c2ccc(F)cc2F)cc1 | 16.8 | 
34 | Cc1ccc(/C=C/c2ccccc2F)cc1 | 10.1 | 
35 | Fc1cccc(/C=C/c2cc(F)ccc2F)c1 | 10.7 | 
36 | COc1ccc(/C=C/c2cccc(F)c2)cc1 | 3.6 | 
37 | Fc1ccccc1/C=C/c1c(F)cccc1F | 21.2 | 
38 | Cc1ccc(/C=C/c2cccc([N+](=O)[O-])c2)cc1 | 11.9 | 
39 | COc1ccccc1/C=C/c1ccccc1 | 23.1 | 
40 | Cc1ccc(/C=C/c2cccc(C(F)(F)F)c2)cc1 | 19.2 | 

Row | Compound | fold change (FC) [1] | fold change (FC) [2]
41 | COc1cccc(/C=C/c2ccc(C)cc2)c1OC | 16.1 | 
42 | Fc1cccc(/C=C/c2ccc(F)cc2F)c1 | 8.2 | 
43 | COc1cccc(/C=C/c2cccc(F)c2)c1 | 15.1 | 
44 | COc1ccc(OC)c(/C=C/c2ccc(OC)cc2OC)c1 | 12.9 | 
45 | COc1cccc(/C=C/c2ccccc2F)c1 | 14.4 | 
46 | Fc1ccc(F)c(/C=C/c2ccccc2F)c1 | 22.3 | 
47 | Fc1ccc(/C=C/c2ccccc2F)c(F)c1 | 5 | 
48 | Fc1ccc(/C=C/c2ccccc2F)cc1 | 12.7 | 
49 | C[S+]([O-])CCCCN=C=S (stereo not drawn) | 12.4 | 
50 | Fc1ccc(/C=C/c2ccccc2)cc1 | 4.8 | 
51 | O=[N+]([O-])c1cccc(/C=C/c2ccccc2)c1 | 18.6 | 
52 | Oc1ccc(/C=C/c2ccccc2F)cc1 | 13.4 | 
53 | Fc1ccc(/C=C/c2ccc(F)c(F)c2)cc1 |  | 7
54 | COc1ccc(/C=C/c2cccc(F)c2)cc1OC | 5.9 | 
55 | COc1ccccc1/C=C/c1ccccc1F | 18.4 | 
56 | Oc1ccc(/C=C/c2cc(O)cc(O)c2)cc1 | 3.2 | 
57 | COc1ccc(/C=C/c2cccc([N+](=O)[O-])c2)cc1 | 69 | 
58 | Cc1ccc(/C=C/c2ccc(F)cc2)cc1 | 1.1 | 
